Results from patent US6998415B2, “Substituted sulfonylphenylheterocycles as cyclooxygenase-2 and 5-lipoxygenase inhibitors” (Pharmacia Corporation, priority 1996, dated 2006).

Experiments:
[1] = biological target: T1, 5-lipoxygenase (5-LO) (Homo sapiens, UniProt P09917); test: Assay for 5-lipoxygenase activity: calcium ionophore-induced LTB4 production in human whole blood; assay type: cell-based; settings: A-23187 (20 μg/ml)-induced LTB4 in human whole blood; mean IC50
T1 construct: calcium ionophore-induced Leukotriene B4 (LTB4) production in human whole blood; endogenous in cells; host or cells: human whole blood (healthy donors), diluted 1:4 in RPMI 1640
T1 sequence (P09917 1-674): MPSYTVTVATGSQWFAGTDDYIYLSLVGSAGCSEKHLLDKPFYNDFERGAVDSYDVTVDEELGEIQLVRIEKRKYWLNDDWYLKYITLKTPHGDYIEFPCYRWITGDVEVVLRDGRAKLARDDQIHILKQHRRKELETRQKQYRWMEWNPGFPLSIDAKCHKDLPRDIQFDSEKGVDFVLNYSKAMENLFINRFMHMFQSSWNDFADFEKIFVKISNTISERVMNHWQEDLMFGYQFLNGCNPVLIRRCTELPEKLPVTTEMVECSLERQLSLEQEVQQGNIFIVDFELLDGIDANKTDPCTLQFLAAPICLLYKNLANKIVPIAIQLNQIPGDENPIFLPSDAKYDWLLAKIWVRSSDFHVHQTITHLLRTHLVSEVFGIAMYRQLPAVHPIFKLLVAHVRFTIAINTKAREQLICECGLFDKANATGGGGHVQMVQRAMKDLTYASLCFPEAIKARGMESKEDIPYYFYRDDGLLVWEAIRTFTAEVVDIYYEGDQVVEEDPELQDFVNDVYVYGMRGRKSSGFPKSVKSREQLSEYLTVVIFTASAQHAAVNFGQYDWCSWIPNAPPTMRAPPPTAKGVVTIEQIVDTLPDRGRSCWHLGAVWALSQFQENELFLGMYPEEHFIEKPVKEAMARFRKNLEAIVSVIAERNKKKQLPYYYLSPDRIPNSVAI
Description: Assay for 5-Lipoxygenase Activity
The 5-lipoxygenase (5-LO) activity of the compounds were determined by the calcium ionophore-induced Leukotriene B4 (LTB4) production in human whole blood. Venous blood was collected from healthy human donors using heparin as an anti-coagulant. Human blood samples (0.2 ml of a 1:4 dilution in RPMI 1640 medium) were incubated in 96-well culture plates for 15 minutes at 37° C. with test compounds dissolved in ethanol (EtOH; final concentration<1%), or vehicle. Typically 7 concentrations of test compounds were examined in duplicate. A-23187 [Sigma] was added to the blood to a final concentration of 20 μg/ml, and the mixtures were incubated for 10 minutes at 37° C. The reaction was stopped by placing the samples on ice. The samples were then centrifuged at 800×g at 4° C. for 10 minutes to pellet the cells, and the supernatants were recovered for quantitation of LTB4 by LISA (Cayman Chemical Co.; sensitivity 3 pg/ml). IC50's were estimated from a four parameter logistic model with two parameters fixed, the minimum (0% inhibition) and maximum (100% inhibition). The IC50 value is the concentration that produces 50% inhibition between the fixed values of the minimum and maximum. Data is reported as the mean IC50 for each compound.

[2] = test system: rat paw edema (carrageenan foot edema); test: Rat carrageenan foot pad edema test; assay type: in vivo, rat (male Sprague-Dawley); settings: dosed orally 1 h before carrageenan, foot volume 3 h after carrageenan
Description: Rat Carrageenan Foot Pad Edema Test
The carrageenan foot edema test was performed with materials, reagents and procedures essentially as described by winter, et al., (Proc. Soc. Exp. Biol. Med., 111, 544 (1962)). Male Sprague-Dawley rats were selected in each group so that the average body weight was as close as possible. Rats were fasted with free access to water for over sixteen hours prior to the test. The rats were dosed orally (1 mL) with compounds suspended in vehicle containing 0.5% methylcellulose and 0.025% surfactant, or with vehicle alone. One hour later a subplantar injection of 0.1 mL of 1% solution of carrageenan/sterile 0.9% saline was administered and the volume of the injected foot was measured with a displacement plethysmometer connected to a pressure transducer with a digital indicator. Three hours after the injection of the carrageenan, the volume of the foot was again measured. The average foot swelling in a group of drug-treated animals was compared with that of a group of placebo-treated animals and the percentage inhibition of edema was determined (Otterness and Bliven, Laboratory Models for Testing NSAIDs, in Non-steroidal Anti-Inflammatory Drugs, (J. Lombardino, ed. 1985)).

[3] = biological target: COX-1 (UniProt P23219); test: Assay for COX-1 activity in vitro (PGE2 ELISA, recombinant enzyme); assay type: biochemical, human or murine; settings: recombinant COX-1, arachidonic acid 10 μM, pre-incubation 10–20 minutes
Description: Evaluation of COX-1 and COX-2 Activity in vitro a. Preparation of Recombinant COX Baculoviruses
(§1) Recombinant COX-1 and COX-2 were prepared as described by Gierse et al, [J. Biochem., 305, 479–84 (1995)]. A 2.0 kb fragment containing the coding region of either human or murine COX-1 or human or murine COX-2 was cloned into a BamHI site of the baculovirus transfer vector pVL1393 (Invitrogen) to generate the baculovirus transfer vectors for COX-1 and COX-2 in a manner similar to the method of D. R. O'Reilly et al (Baculovirus Expression Vectors: A Laboratory Manual (1992)). Recombinant baculoviruses were isolated by transfecting 4 μg of baculovirus transfer vector DNA into SF9 insect cells (2×10^8) along with 200 ng of linearized baculovirus plasmid DNA by the calcium phosphate method. See M. D. Summers and G. E. Smith, A Manual of Methods for Baculovirus Vectors and Insect Cell Culture Procedures, Texas Agric. Exp. Station Bull. 1555 (1987). Recombinant viruses were purified by three rounds of plaque purification and high titer (10^7–10^8 pfu/ml) stocks of virus were prepared. For large scale production, SF9 insect cells were infected in 10 liter fermentors (0.5×10^6/ml) with the recombinant baculovirus stock such that the multiplicity of infection was 0.1. After 72 hours the cells were centrifuged and the cell pellet homogenized in Tris/Sucrose (50 mM: 25%, pH 8.0) containing 1% 3-[(3-cholamidopropyl)dimethylammonio]-1-propanesulfonate (CHAPS). The homogenate was centrifuged at 10,000×G for 30 minutes, and the resultant supernatant was stored at −80° C. before being assayed for COX activity. […]
(§2) b. Assay for COX-1 and COX-2 Activity
(§3) COX activity was assayed as PGE2 formed/μg protein/time using an ELISA to detect the prostaglandin released. CHAPS-solubilized insect cell membranes containing the appropriate COX enzyme were incubated in a potassium phosphate buffer (50 mM, pH 8.0) containing epinephrine, phenol, and heme with the addition of arachidonic acid (10 μM). Compounds were pre-incubated with the enzyme for 10–20 minutes prior to the addition of arachidonic acid. Any reaction between the arachidonic acid and the enzyme was stopped after ten minutes at 37° C./room temperature by transferring 40 μl of reaction mix into 160 μl ELISA buffer and 25 μM indomethacin. The PGE2 formed was measured by standard ELISA technology (Cayman Chemical).

[4] = biological target: T2, COX-2 (UniProt P35354); test: Assay for COX-2 activity in vitro (PGE2 ELISA, recombinant enzyme); assay type: biochemical, human or murine; settings: recombinant COX-2, arachidonic acid 10 μM, pre-incubation 10–20 minutes
T2 sequence (P35354 1-604): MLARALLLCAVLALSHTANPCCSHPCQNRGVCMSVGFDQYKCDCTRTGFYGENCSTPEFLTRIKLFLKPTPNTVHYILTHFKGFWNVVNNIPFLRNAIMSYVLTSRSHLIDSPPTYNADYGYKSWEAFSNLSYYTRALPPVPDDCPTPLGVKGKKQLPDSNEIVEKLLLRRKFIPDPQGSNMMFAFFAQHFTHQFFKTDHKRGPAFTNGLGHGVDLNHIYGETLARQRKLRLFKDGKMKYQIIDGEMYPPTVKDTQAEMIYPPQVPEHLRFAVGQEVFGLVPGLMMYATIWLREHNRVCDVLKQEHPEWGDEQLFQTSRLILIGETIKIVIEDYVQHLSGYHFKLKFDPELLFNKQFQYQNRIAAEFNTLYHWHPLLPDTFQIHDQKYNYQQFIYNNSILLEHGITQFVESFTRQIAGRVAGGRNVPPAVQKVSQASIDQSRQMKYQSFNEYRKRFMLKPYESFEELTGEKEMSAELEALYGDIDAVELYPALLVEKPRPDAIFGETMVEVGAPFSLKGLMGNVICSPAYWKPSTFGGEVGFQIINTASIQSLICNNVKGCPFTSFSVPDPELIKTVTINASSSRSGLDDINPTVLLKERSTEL
Description: Evaluation of COX-1 and COX-2 Activity in vitro
The COX-2 inhibit on activity of the compounds or this invention illustrated in the Examples was determined by the following methods. a. Preparation of Recombinant COX Baculoviruses
as §1, §2, §3

SMILES | IC50 [1] [nM] | RAT PAW EDEMA % Inhibition @ 10 mg/kg body weight [2] [%] | IC50 [3] [nM] | IC50 [4] [nM] | melting point [°C]
COC1(c2cc(F)cc(OCc3nc(-c4ccc(F)cc4)c(-c4ccc(S(C)(=O)=O)cc4)o3)c2)CCOCC1 [Example 3, 4-(4-Fluorophenyl)-2-[[3-fluoro-5-(3,4,5,6-tetrahydro-4-methoxy-2H-pyran-4-yl)phenoxy)methyl]-5-(4-(methylsulfonyl)phenyl)oxazole] | 20 | 15 | > 100000 | < 100 | 
COC1(c2cccc(CSCCc3nc(-c4ccccc4)c(-c4ccc(S(N)(=O)=O)cc4)o3)c2)CCOCC1 [Example 19, 4-[2-[[[3-(3,4,5,6-Tetrahydro-4-methoxypyran-4-yl)phenylmethyl]thio]ethyl]-4-phenyloxazol-5-yl]benzenesulfonamide] | > 10000 |  | 2300 | < 100 | 60.9 to 66.4
COC1(c2cccc(CSc3nc(-c4ccccc4)c(-c4ccc(S(N)(=O)=O)cc4)o3)c2)CCOCC1 [Example 21] | > 10000 |  | 2600 | < 100 | 74.7 to 78.5
